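96-well plates; 48 h exposure; 5 concentrations. Endpoints by linear interpolation between flanking doses. Not reached: highest tested concentration assigned. The concentration for 50% growth inhibition is given as GI50. Definition used: TGI = concentration required for complete inhibition of growth.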
Key:
Assay in all cases: inhibition of tumour cell growth, NCI panel, 48 h
[1] = system: 786-0 renal
[2] = system: A498 renal
[3] = system: A549 NSCLC
[4] = system: ACHN renal
[5] = system: BT-549 breast
[6] = system: CAKI-1 renal
[7] = system: CCRF-CEM leukemia
[8] = system: COLO 205 colon
[9] = system: DU-145 prostate
[10] = system: EKVX NSCLC
[11] = system: HCC-2998 colon
[12] = system: HCT-116 colon
[13] = system: HCT-15 colon
[14] = system: HL-60(TB) leukemia
[15] = system: HOP-62 NSCLC
[16] = system: HOP-92 NSCLC
[17] = system: HS 578T breast
[18] = system: HT29 colon
[19] = system: IGROV1 ovarian
[20] = system: K-562 leukemia
[21] = system: KM12 colon
[22] = system: M14 melanoma
[23] = system: MALME-3M melanoma
[24] = system: MCF7 breast
[25] = system: MDA-MB-231 breast
[26] = system: MDA-MB-435
[27] = system: MOLT-4 leukemia
[28] = system: NCI-H226 lung
[29] = system: NCI-H460 lung
[30] = system: NCI-H522 lung
[31] = system: NCI/ADR-RES ovarian
[32] = system: OVCAR-3 ovarian
[33] = system: OVCAR-4 ovarian
[34] = system: OVCAR-5 ovarian
[35] = system: OVCAR-8 ovarian
[36] = system: PC-3 prostate
[37] = system: RPMI-8226 leukemia
[38] = system: RXF 393 renal
[39] = system: SF-268 CNS
[40] = system: SF-295 CNS
[41] = system: SF-539 CNS
[42] = system: SK-MEL-2 melanoma
[43] = system: SK-MEL-28 melanoma
[44] = system: SK-MEL-5 melanoma
[45] = system: SK-OV-3 ovarian
[46] = system: SN12C renal
[47] = system: SNB-19 CNS
[48] = system: SNB-75 CNS
[49] = system: SR leukemia
[50] = system: SW-620 colon
[51] = system: T-47D breast
[52] = system: TK-10 renal
[53] = system: U251 CNS
[54] = system: UACC-257 melanoma
[55] = system: UACC-62 melanoma
[56] = system: UO-31 renal

## Fc1ccc(-c2nc(C(Cl)Cl)nc3cc(-c4ccccc4)nn23)cc1
[1]
  GI50: > 100 µM
  TGI: > 100 µM
[2]
  GI50: > 100 µM
  TGI: > 100 µM
[3]
  GI50: 3.72 µM
  TGI: 33.8 µM
[4]
  GI50: 3.58 µM
  TGI: > 100 µM
[5]
  GI50: > 100 µM
  TGI: > 100 µM
[6]
  GI50: 16 µM
  TGI: > 100 µM
[7]
  GI50: > 100 µM
  TGI: > 100 µM
[8]
  GI50: 3.67 µM
  TGI: 21.9 µM
[9]
  GI50: 2.46 µM
  TGI: 6.55 µM
[10]
  GI50: 7.79 µM
  TGI: > 100 µM
[11]
  GI50: 2.27 µM
  TGI: 6.21 µM
[12]
  GI50: 38.5 µM
  TGI: > 100 µM
[13]
  GI50: 4.64 µM
  TGI: > 100 µM
[14]
  GI50: 3.79 µM
  TGI: > 100 µM
[15]
  GI50: 12.1 µM
  TGI: > 100 µM
[16]
  GI50: > 100 µM
  TGI: > 100 µM
[17]
  GI50: > 100 µM
  TGI: > 100 µM
[18]
  GI50: 3.92 µM
  TGI: > 100 µM
[19]
  GI50: > 100 µM
  TGI: > 100 µM
[20]
  GI50: 15.9 µM
  TGI: > 100 µM
[21]
  GI50: 15.9 µM
  TGI: > 100 µM
[22]
  GI50: > 100 µM
  TGI: > 100 µM
[23]
  GI50: > 100 µM
  TGI: > 100 µM
[24]
  GI50: 7.36 µM
  TGI: > 100 µM
[25]
  GI50: 35.4 µM
  TGI: > 100 µM
[26]
  GI50: > 100 µM
  TGI: > 100 µM
[27]
  GI50: 7.81 µM
  TGI: > 100 µM
[28]
  GI50: > 100 µM
  TGI: > 100 µM
[29]
  GI50: 3.63 µM
  TGI: > 100 µM
[30]
  GI50: 7.36 µM
  TGI: > 100 µM
[31]
  GI50: 6.48 µM
  TGI: > 100 µM
[32]
  GI50: 6.13 µM
  TGI: > 100 µM
[33]
  GI50: 7.21 µM
  TGI: > 100 µM
[34]
  GI50: 22.3 µM
  TGI: > 100 µM
[35]
  GI50: 7.33 µM
  TGI: > 100 µM
[36]
  GI50: > 100 µM
  TGI: > 100 µM
[37]
  GI50: > 100 µM
  TGI: > 100 µM
[38]
  GI50: 3.79 µM
  TGI: 18.5 µM
[39]
  GI50: > 100 µM
  TGI: > 100 µM
[40]
  GI50: 28.2 µM
  TGI: > 100 µM
[41]
  GI50: > 100 µM
  TGI: > 100 µM
[42]
  GI50: > 100 µM
  TGI: > 100 µM
[43]
  GI50: > 100 µM
  TGI: > 100 µM
[44]
  GI50: > 100 µM
  TGI: > 100 µM
[45]
  GI50: 10.7 µM
  TGI: > 100 µM
[46]
  GI50: > 100 µM
  TGI: > 100 µM
[47]
  GI50: 10.5 µM
  TGI: > 100 µM
[48]
  GI50: > 100 µM
  TGI: > 100 µM
[49]
  GI50: 5.23 µM
  TGI: > 100 µM
[50]
  GI50: 5.05 µM
  TGI: > 100 µM
[51]
  GI50: > 100 µM
  TGI: > 100 µM
[52]
  GI50: > 100 µM
  TGI: > 100 µM
[53]
  GI50: 5.79 µM
  TGI: > 100 µM
[54]
  GI50: > 100 µM
  TGI: > 100 µM
[55]
  GI50: > 100 µM
  TGI: > 100 µM
[56]
  GI50: > 100 µM
  TGI: > 100 µM

Source: PubChem BioAssay (NCI)
